# Tests used:
# Type in all cases: cell-based, human
# [1] = test system: Jurkat cells expressing TCR2 (Jurkat-TCR2); details: CD69; T2 cells pulsed with peptide, 2 μM, 18 h
# [2] = test system: Jurkat cells expressing TCR16; details: HLA-A*02:01, T2 cells pulsed with 9-mers
# H1395 lung cancer cells = experiment: Cell-mediated cytotoxicity of H1395 lung cancer cells by TCR2 primary T cells; details: peptide-pulsed A*02+ H1395 cells, TMEM9-mer compared to LMP9-mer
# Jurkat-TCR15 clone = experiment: Stimulation of Jurkat-TCR15 clone; details: HLA-A*02 context; TCR15 CDR3β […]
# [3] = test system: primary T cells expressing TCR2; details: HLA-A*02+ 293T cells overexpressing full-length protein, 1:1 ratio, 18 h
Molecule,stimulation of Jurkat-TCR2 cells (in words) [1],other results
KLGGLLTMVGV,stimulated Jurkat cells expressing TCR2,
ALGGLLTPL [TMEM9-mer],could all stimulate the Jurkat-TCR2 cells,recognition by TCR16 (in words) [2]: recognized TMEM9-mer but not the microbial antigens; cell-mediated cytotoxicity (in words) (H1395 lung cancer cells): weaker targets for cell-mediated cytotoxicity compared to those with LMP9-mer
CLGGLLTMV [LMP9-mer],could all stimulate the Jurkat-TCR2 cells,
AMGGLLTQLAM,stimulated Jurkat cells expressing TCR2,
LLGGLLTMV [EntS9-mer],could all stimulate the Jurkat-TCR2 cells,
LLGTLVAML,,stimulation of Jurkat-TCR15 clone (in words) (Jurkat-TCR15 clone): also stimulated the Jurkat-TCR15 clone
"TMEM161A: full-length protein TMEM161A expressed in HLA-A*02+ 293T cells (protein, UniProt Q9NX61 1-479, looked up, full-length) MAVLGVQLVVTLLTATLMHRLAPHCSFARWLLCNGSLFRYKHPSEEELRALAGKPRPRGRKERWANGLSEEKPLSVPRDAPFQLETCPLTTVDALVLRFFLEYQWFVDFAVYSGGVYLFTEAYYYMLGPAKETNIAVFWCLLTVTFSIKMFLTVTRLYFSAEEGGERSVCLTFAFLFLLLAMLVQVVREETLELGLEPGLASMTQNLEPLLKKQGWDWALPVAKLAIRVGLAVVGSVLGAFLTFPGLRLAQTHRDALTMSEDRPMLQFLLHTSFLSPLFILWLWTKPIARDFLHQPPFGETRFSLLSDSAFDSGRLWLLVVLCLLRLAVTRPHLQAYLCLAKARVEQLRREAGRIEAREIQQRVVRVYCYVTVVSLQYLTPLILTLNCTLLLKTLGGYSWGLGPAPLLSPDPSSASAAPIGSGEDEVQQTAARIAGALGGLLTPLFLRGVLAYLIWWTAACQLLASLFGLYFHQHLAGS",,stimulation of TCR2-T cells by full-length protein (in words) [3]: appearing to be the weakest stimulator

# — publication PMC7960510 (Immunity, 2021)
